Data on 16 molecules can be found in patent publication US6759538B2, “Substituted diphenyl heterocycles useful for treating HCV infection” (priority 2001, dated 2004).

The test system of data set [1] is HCV nonstructural protein NS5A. The data set can be described thus: Quantitative Western blot assay. In kind it is cell-based, Hepatitis C virus (HCV). The note with it: 9-13 replicon cells, 48 hours with compound, second symbol of Replicon/Western. How it is done: Alternatively, the inhibitory activity of the compounds can be confirmed using a quantitative Western immunoblot assay utilizing antibodies specific for HCV non-structural proteins, such as NS3, NS4A NS5A and NS5B. In one embodiment of this assay, replicon cells are treated with varying concentrations of test compound to determine the concentration of test compound that yields a 50% reduction in the amount of a non-structural protein produced as compared to a control sample (IC50). A single non-structural protein may be quantified or multiple non-structural proteins may be quantified. Antibodies suitable for carrying out such immunoblot assays are available commercially (e.g., from BIODESIGN International, Saco, Me.).
Certain exemplary compounds of the invention were also tested for their ability to inhibit HCV replication using a quantitative Western blot analysis with antibodies specific for the HCV nonstructural protein NS5A. Actively dividing 9-13 replicon cells were seeded into 6-well plates at a density of 1×10^5 cells/well in a volume of 2 ml/well and incubated at 37° C. and 5% CO2 for 24 hours. Various concentrations of test compounds (in a volume of 10 ul) were added to the wells and the cells incubated for another 48 hours. Protein samples were prepared from the cultured cells, resolved on a SDS-PAGE gel and transferred to a nitrocellulose membrane. The membrane was blocked with 5% non-fat milk in PBS for 1 hour at room temperature. Primary antibody (anti NS5A antibody; BIODESIGN International, Saco, Me.) incubation was performed for 1 hour at room temperature, after which the membrane was washed 3 times (for 15 min per time) with PBST (PBS plus 0.1% Tween 20). Horseradish peroxidase conjugated secondary antibody incubation was performed for 1 hour at room temperature and the membrane was washed 3 times (for 15 min per time) with PBST. The membrane was then soaked in substrate solution (Pierce) and exposed to a film or quantified using an imager. In this assay, the amount of test compound that yielded a 50% reduction in the amount of NS5A protein translated as compared to a control sample (IC50) was determined.
(Immunoblotting shows a protein as a band on a membrane.)

In a further data set the target is HCV replicon. Kind of data set: HCV replicon assay (luciferase). The data set is classed as cell-based, Hepatitis C virus (HCV). The following applies: 5-2 Luc replicon cells, 24 hours with compound, luciferase emission; first symbol of Replicon/Western. The source says: In one embodiment, the inhibitory activity of the compounds can be confirmed in a replicon assay that assesses the ability of a test compound to block or inhibit HCV replication in replicon cells. One example of a suitable replicon assay is the liver cell-line Huh 7-based replicon assay described in Lohmann et al., 1999, Science 285:110-113. A specific example of this replicon assay which utilizes luciferase translation is provided in the Examples Section. In one embodiment of this assay, the amount of test compound that yields a 50% reduction in translation as compared to a control cell (IC50) may be determined.
The inhibitory activity of certain exemplary compounds of the invention was confirmed using an HCV replicon assay. The HCV replicon can include such features as the HCV 5′ untranslated region including the HCV IRES, the HCV 3′ untranslated region, selected HCV genes encoding HCV polypeptides, selectable markers, and a reporter gene such as luciferase, GFP, etc. In the assay, actively dividing 5-2 Luc replicon-comprising cells (obtained from Rolf Bartenschlager; see Lohmann et al., 1999, Science 285:110-113) were seeded at a density of between about 5,000 and 7,500 cells/well onto 96 well plates (about 90 μl of cells per well) and incubated at 37° C. and 5% CO2 for 24 hours. Then, the test compound (in a volume of about 10 μl) was added to the wells at various concentrations and the cells were incubated for an additional 24 hours before luciferase assay. The media was aspirated from each well and Bright-Glo (Promega, Madison, Wis.) luciferase assay reagents were added to each well according to the manufacturer's instructions. Briefly, the Bright-Glo reagent was diluted 1:1 with PBS and 100 μl of diluted reagent was added to each well. After 5 min of incubation at room temperature, luciferin emission was quantified with a luminometer. In this assay, the amount of test compound that yielded a 50% reduction in luciferase emission (IC50) was determined.
For orientation: A replicon is a self-replicating genome or part of one, used to study replication in cells.

The subject of data set [2] is 5-2 Luc cells, 9-13 cells or Huh-7 cells. Kind of data set: Cytotoxicity assay (Cell Titer Glo). The note with it: read-out: IC50 cytotoxicity (number of viable cells), liver cells including an HCV replicon, 24 hr.
Procedure: In the assay, cells were seeded onto 96-well plates (approx. 7500 cells/well in a volume of 90 μl) and grown for 24 hr at 37° C. On day 2, various concentrations of test compound (in a volume of 10 μl) were added to the wells and the cells were grown for an additional 24 hr at 37° C. On day 3, an ATP-dependent R-Luciferase assay (Cell Titer Glo assay) was performed to determine the number of viable cells.

For orientation: IC50 means the midpoint of a concentration-inhibition curve. With “2,2-Dichloro-N-[3-[3-[2-(N-morpholino)-6-trifluoromethylphenyl)-5-isoxazolyl]phenyl] Acetamide [Compound 37]”, the IC50 (in data set [1]; at HCV replicon) was at most 10 µM throughout.
As for “2,2-Dichloro-N-[3-[3-[2-fluoro-(6-N-morpholinosulfamoyl)phenyl]-5-isoxazolyl]-phenyl] Acetamide [Compound 21]”, the IC50 (in data set [1]; on HCV replicon) was at most 10 µM throughout.
In the case of `O=C(Nc1cc(-c2cc(-c3c(Cl)cccc3Cl)no2)ccc1F)C(Cl)Cl` [Compound 1, 2,2-Dichloro-N-[3-[3-(2,6-dichlorophenyl)-5-isoxazolyl]-6-fluorophenyl] Acetamide], the IC50 (in data set [1]; at HCV replicon) was at most 10 µM each time.
Regarding `O=C(Nc1cccc(-c2cc(-c3cccc(Cl)c3Cl)no2)c1)C(Cl)Cl` [Compound 3, 2,2-Dichloro-N-[3-[3-(2,3-dichlorophenyl)-5-isoxazolyl]phenyl] Acetamide], the IC50 in data set [1] is at most 10 µM; at HCV replicon it was over 10 µM.
Regarding `O=C(Nc1cccc(-c2cc(-c3c(Cl)cccc3Cl)on2)c1)C(Cl)Cl` [Compound 5, 2,2-Dichloro-N-[3-[5-(2,6-dichlorophenyl)-3-isoxazolyl]phenyl] Acetamide], the 50% inhibitory concentration (IC50) (in data set [1]; on HCV replicon) was at most 10 µM in each case.
With `O=C(Nc1cccc(-c2cc(-c3c(Cl)cccc3N3CCOCC3)no2)c1)C(Cl)Cl` [Compound 7, 2,2-Dichloro-N-[3-[3-[2-chloro-6-(N-morpholino)phenyl]-5-isoxazolyl]phenyl] Acetamide], the IC50 (in data set [1]; on HCV replicon) was at most 10 µM throughout.
On to `CSc1cccc(F)c1-c1cc(-c2cccc(NC(=O)C(Cl)Cl)c2)on1` [Compound 11, 2,2-Dichloro-N-[3-[3-(2-fluoro-6-thiomethylphenyl)-5-isoxazolyl]phenyl] Acetamide], for which the IC50 (in data set [1]; on HCV replicon) was at most 10 µM in each case.
On to `O=C(Nc1ccc(F)c(-c2cc(-c3c(Cl)cccc3Cl)no2)c1)C(Cl)Cl` [Compound 13, 2,2-Dichloro-N-[3-[3-(2,6-dichlorophenyl)-5-isoxazolyl]-4-fluorophenyl] Acetamide], for which the concentration for half-maximal inhibition (IC50) (in data set [1]; at HCV replicon) was at most 10 µM each time.
In the case of `Cc1ccc(F)c(-c2cc(-c3cccc(NC(=O)C(Cl)Cl)c3)on2)c1Cl` [Compound 15, 2,2-Dichloro-N-[3-[3-(2-chloro-6-fluoro-3-methylphenyl)-5-isoxazolyl]phenyl] Acetamide], the 50% inhibitory concentration (IC50) (in data set [1]; on HCV replicon) was at most 10 µM each time.
For `O=C(Nc1cccc(-c2cc(-c3c(F)cccc3Cl)no2)c1)C(Cl)Cl` [Compound 27, 2,2-Dichloro-N-[3-[3-(2-chloro-6-fluorophenyl)-5-isoxazolyl]phenyl] Acetamide], the IC50 (in data set [1]; at HCV replicon) was at most 10 µM throughout.
Regarding `Cc1cc(C)c(-c2cc(-c3cccc(NC(=O)C(Cl)Cl)c3)on2)c(C)c1` [Compound 69, 2,2-Dichloro-N-[3-[3-(2,4,6-trimethylphenyl)-5-isoxazolyl]phenyl] Acetamide], the results for the half-maximal inhibitory concentration (IC50) (in data set [2]; at HCV replicon) were 3 µM and at most 10 µM, respectively.
For `O=C(Nc1cccc(-c2cc(-c3c(Cl)cc(OCCN4CCOCC4)cc3Cl)no2)c1)C(Cl)Cl` [Compound 75, 2,2-Dichloro-N-[3-[3-[2,6-dichloro-4-(N-morpholinoethyleneoxy)phenyl]-5-isoxazolyl]-phenyl] Acetamide], the IC50 was at most 10 µM in data set [1] and over 10 µM at HCV replicon.
In the case of `O=C(CI)Nc1cccc(-c2cc(-c3c(Cl)cccc3Cl)no2)c1` [Compound 101, 2-Iodo-N-[3-[3-(2,6-dichlorophenyl)-5-isoxazolyl]phenyl] Acetamide], the IC50 in data set [1] is over 10 µM; at HCV replicon, at most 10 µM.
The matching figures for `COC(=O)c1ccc(Cl)c(-c2cc(-c3cccc(NC(=O)C(Cl)Cl)c3)on2)c1Cl` [Compound 135, 2,2-Dichloro-N-[3-[3-(3-carbomethoxy-2,6-dichlorophenyl)-5-isoxazolyl]phenyl] Acetamide]: over 10 µM and over 10 µM.
For `Cc1cccc(-c2cc(-c3cccc(NC(=O)C(Cl)Cl)c3)on2)c1C` [Compound 163, 2,2-Dichloro-N-[3-[3-(2,3-dimethylphenyl)-5-isoxazolyl]phenyl] Acetamide], in that order: over 10 µM and over 10 µM.
Regarding `COc1ccc(-c2cc(-c3c(Cl)cccc3Cl)no2)cc1NC(=O)C(Cl)Cl` [Compound 173, 2,2-Dichloro-N-[3-[3-(2,6-dichlorophenyl)-5-isoxazolyl]-6-methoxyphenyl] Acetamide], on HCV replicon, the IC50 was at most 10 µM.
